Values quoted from earlier work in patent US12527751B2, “Oral thin film with high active agent loading” (LTS LOHMANN THERAPIE-SYSTEME AG, priority 2017, dated 2026).

Conditions: compared with (R) ketamine

## CNC1(c2ccccc2Cl)CCCCC1=O (racemic) [(S) ketamine, (S)-(±)-2-(2-chlorophenyl)-2-(methylamino)cyclohexan-1-one]
  Analgesic and anaesthetic potency relative to the (R) form: approximately three times higher
